Test results from paper PMC13626057, “Sensitizing tumor response to topoisomerase I antibody-drug conjugate by selective CDK7 inhibition” (Science Advances, 2026).
Like-named read-outs stand apart in the source and are kept apart here.

Tests used:
MCF-7 cells = experiment: MCF-7 cell viability (ATP Lite system); type: cell-based; conditions: Homo sapiens, MCF7, read-out: IC50 MCF-7 cell growth
Procedure: Fig. 2. Q901 alters RNAPII phosphorylation and transcriptional activity. (A) MCF-7 cells were treated with Q901 at the indicated concentrations for 72, 96, or 120 hours. Cell viability was measured using the ATP Lite system. Inhibition (%) was plotted against the log-transformed Q901 concentration (μM) (n = 3 to 4). Data represent means ± SD. (B and C) RNAPII ChIP-seq was performed following treatment with 100 nM Q901 for the indicated duration. (B) Volcano plot of pan RNAPII ChIP-seq signals after Q901 treatment [n = 2; blue dot indicates P value ≤ 0.05 and log2 fold change (log2FC) ≤ −0.58; red dot indicates P value ≤ 0.05 and log2FC ≥ 0.58]. […] CDK7 ChIP-seq was performed with 100 nM Q901 for the indicated durations.
Cells were seeded into 96-well plates and treated with compounds at the indicated concentrations and time points. After incubation, cell viability was measured using either CellTiter-Glo luminescent cell viability assay (Promega, Madison, WI, USA, G7572) according to the manufacturer’s instructions. Plates were equilibrated to RT for 30 min before adding 50 μl of CellTiter-Glo reagent to each well. Luminescence was measured using the EnVision Multi Label Reader (PerkinElmer, Waltham, MA, USA). Dose-response curves were fitted using a nonlinear regression model with a sigmoidal dose-response function in GraphPad Prism 10.4.1. The absolute IC5_0 values were calculated using the dose-response curves generated in XL-fit 5 (IDBS Software, Woking, UK) and fitted with the four-parameter logistic equation: fit = A + ((B − A)/{1 + [(C/x)^D]}), where A and B represent the bottom and top plateaus of the curve, respectively, C is the IC5_0 value, x is the compound concentration, and D is the Hill slope.

CDK12 = target: T1, CDK12 (Homo sapiens, UniProt Q9NYV4); experiment: Radiometric 28 CDK titration assay; type: biochemical
T1 construct: purchased Reaction Biology (Freiburg, Germany), assay service
Procedure: (§1) A radiometric protein kinase assay service was provided by Reaction Biology (Freiburg, Germany) to measure the kinase activity of 410 protein kinases and 28 CDKs.
(§2) In the 28 CDK titration assay, the residual activity and IC50 values of the compound were calculated using the Quattro Workflow V3.1.1 (Quattro Research GmbH, Munich, Germany). The ATP concentration used in each kinase reaction was set to the apparent ATP-Km value. Dose-response curve fitting was performed using a four-parameter logistic regression model in GraphPad Prism 10.4.1 (GraphPad Software, Boston, MA, USA).

CDK8 = target: T2, CDK8 (Homo sapiens, UniProt P49336); experiment: Radiometric 28 CDK titration assay; type: biochemical
T2 construct: purchased Reaction Biology (Freiburg, Germany), assay service
Procedure: as §1, §2

CDK9 = target: T3, CDK9 (Homo sapiens, UniProt P50750); experiment: Radiometric 28 CDK titration assay; type: biochemical
T3 construct: purchased Reaction Biology (Freiburg, Germany), assay service
Procedure: as §1, §2

CDK13 = target: T4, CDK13 (Homo sapiens, UniProt Q14004); experiment: Radiometric 28 CDK titration assay; type: biochemical
T4 construct: purchased Reaction Biology (Freiburg, Germany), assay service
Procedure: as §1, §2

H292 cells = experiment: H292 cell viability, single agent and combination (SynergyFinder, ATP Lite); type: cell-based; conditions: 72 hours
Procedure: (§3) SynergyFinder was performed by Oncolines (Oss, Netherlands). […] The absolute IC5_0 values were determined from the dose-response curves generated in XL-fit 5 using the four-parameter logistic equation: fit = A + ((B − A)/{1 + [(C/x)^D]}), where A and B represent the bottom and top plateaus of the curve, C is the IC5_0 value, x is the compound concentration, and D is the Hill slope.

HCT116 cells = experiment: HCT116 cell viability, single agent and combination (SynergyFinder, ATP Lite); type: cell-based; conditions: Homo sapiens, HCT-116; 72 hours, alone
Procedure: as §3

other CDKs = experiment: Radiometric 28 CDK titration assay, selectivity over other CDKs; type: biochemical; conditions: ranging from 242-fold to over 1000-fold
Procedure: as §1, §2

HCT116 xenograft = experiment: HCT116 cell line-derived xenograft efficacy; type: in vivo, BALB/c nude mice; conditions: by day 28; T-DXd 10 mg/kg single iv, Q901 10 mg/kg ip once daily
Procedure: BALB/c nude mice were purchased from the Shanghai SIPPR/BK Laboratory Animal Co. Ltd. (Shanghai, China). For in vivo efficacy studies, HCT116 cells or H292 cells were resuspended in PBS and Matrigel (1:1) and implanted subcutaneously. […] Tumor volumes were measured twice weekly after randomization in two dimensions, using a caliper. The TGI was calculated for each group using the formula: TGI (%) = [1 − (Ti − T0)/(Vi − V0)] × 100, where Ti is the average tumor volume of the treatment group on the given day, T0 is the average tumor volume of the treatment group on the day when the treatment was started, Vi is the average tumor volume of the vehicle control group on the same day with Ti, and V0 is the average tumor volume of the vehicle group on the day of treatment start. Statistical significance was calculated using a two-way analysis of variance (ANOVA) followed by Tukey’s multiple comparison test in GraphPad Prism 10.4.1.

[1] = target: T5, recombinant human CDK7/cyclin H/MNAT1 (Homo sapiens, UniProt P50613); experiment: LANCE Ultra TR-FRET CDK7 kinase assay (cell-free enzymatic assay); type: biochemical; conditions: eight-point dilution, top 3000 nM, read-out: IC50 against CDK7
T5 construct: His-tag; purchased Invitrogen PR6749B
Procedure: CDK7 kinase activity was measured using a LANCE Ultra TR-FRET kinase assay (Revvity, formerly PerkinElmer, Waltham, MA, USA) according to the manufacturer’s protocol. Briefly, recombinant human CDK7/cyclin H/MNAT1 His-tag protein (Invitrogen, PR6749B) was incubated with compounds (Q901, Q901R, and QS0551508) in kinase buffer in a 384-well format. The assay used a ULight-labeled peptide substrate and a europium-labeled anti-phospho antibody for time-resolved fluorescence resonance energy transfer (TR-FRET) detection.
TR-FRET signals were measured using an EnVision multimode plate reader (Revvity, EnVision 2105 Alpha) with LANCE/DELFIA detection settings.
Compounds were tested using an eight-point serial dilution (top concentration: 3000 nM, 1:4 dilution). Signals were normalized to DMSO-treated controls to calculate residual kinase activity (%), and dose-response curves were generated using GraphPad Prism 10.4.1.

[2] = target: T6, recombinant CDK7/cyclin H/MAT1 (CAK) trimeric complex (Homo sapiens, UniProt P50613); experiment: Covalent binding site evaluation by mass spectrometry; conditions: incubated 1 hour with CAK complex, Arg-C or Arg-C/trypsin digestion
T6 construct: purchased Thermo Fisher Scientific PV3868
Procedure: The recombinant CAK complex (CDK7/cyclin H/MAT1; Thermo Fisher Scientific, PV3868) was incubated with Q901 or DMSO for 1 hour at room temperature (RT), and the reaction complexes were resolved by SDS–polyacrylamide gel electrophoresis (PAGE). The bands corresponding to CDK7 were excised for in-gel digestion. Denaturation, reduction, and alkylation were performed using 8 M urea, TCEP, and iodoacetamide at RT, followed by Arg-C digestion (1:100 Arg-C:protein ratio, at 37°C for 18 hours) and Arg-C/trypsin digestion (1:100 Arg-C:protein ratio and 1:50 trypsin:protein ratio, at 37°C for 18 hours). The extracted peptides were loaded and eluted using a high-performance liquid chromatography (HPLC) system and then separated through a linear gradient (3 to 60% mobile phase B in 120 min) at a flow rate of 0.3 μl/min using EASY-Spray HPLC Columns (75 μm/500 mm) (Thermo Fisher Scientific, ES903) at 40°C and introduced into an Orbitrap Exploris 240 LC-MS/MS System (Thermo Fisher Scientific, BRE725535) in positive ion mode and run in data-independent acquisition (DIA) mode. Data acquisition was performed over a mass/charge ratio (m/z) range of 390 to 1010, and peak integrations for fragment ions of the most intense charge state of the doubly carbamidomethylated Cys^312-containing peptide were analyzed using the Skyline software 24.1 (Seattle, WA, USA). […]

CDK7 = target: T7, CDK7 (Homo sapiens, UniProt P50613); experiment: Radiometric protein kinase assay (PanQinase; 410-kinase panel and 28 CDK titration); type: biochemical; conditions: ATP at apparent ATP-Km
T7 construct: purchased Reaction Biology (Freiburg, Germany), assay service
Procedure: as §1
In the kinase inhibition assay, the residual activity for each compound was calculated using the following formula: Residual activity (%) = 100 × [(signal of compound − low control)/(high control − low control)]. The selectivity score of the compound at the tested concentrations was calculated for residual activity < 50%, that is, inhibition of >50%. The selectivity score for a particular compound at a particular concentration was calculated using the following formula: Selectivity score = (count of data points < 50%)/(total number of data points).
as §2

H292 xenograft = experiment: H292 cell line-derived xenograft efficacy; type: in vivo, BALB/c nude mice; conditions: for tumor growth inhibition (TGI): by day 28
Procedure: BALB/c nude mice were purchased from the Shanghai SIPPR/BK Laboratory Animal Co. Ltd. (Shanghai, China). For in vivo efficacy studies, HCT116 cells or H292 cells were resuspended in PBS and Matrigel (1:1) and implanted subcutaneously. When tumors reached an average size of 117 mm^3 (HCT116) or 140 mm^3 (H292), mice were randomized into four groups (n = 8 per group) and treated with Q901 (3 or 10 mg/kg, intraperitoneally once daily), T-DXd (10 mg/kg, single intravenous administration on day 0), SG (3 mg/kg, single intravenous administration on days 1 and 8), or a combination thereof. Tumor volumes were measured twice weekly after randomization in two dimensions, using a caliper. The TGI was calculated for each group using the formula: TGI (%) = [1 − (Ti − T0)/(Vi − V0)] × 100, where Ti is the average tumor volume of the treatment group on the given day, T0 is the average tumor volume of the treatment group on the day when the treatment was started, Vi is the average tumor volume of the vehicle control group on the same day with Ti, and V0 is the average tumor volume of the vehicle group on the day of treatment start. Statistical significance was calculated using a two-way analysis of variance (ANOVA) followed by Tukey’s multiple comparison test in GraphPad Prism 10.4.1.

[3] = first regimen: SG 3 mg/kg, Q901 10 mg/kg
[4] = second regimen: SG 10 mg/kg, Q901 3 mg/kg

T7 sequence (P50613 whole entry): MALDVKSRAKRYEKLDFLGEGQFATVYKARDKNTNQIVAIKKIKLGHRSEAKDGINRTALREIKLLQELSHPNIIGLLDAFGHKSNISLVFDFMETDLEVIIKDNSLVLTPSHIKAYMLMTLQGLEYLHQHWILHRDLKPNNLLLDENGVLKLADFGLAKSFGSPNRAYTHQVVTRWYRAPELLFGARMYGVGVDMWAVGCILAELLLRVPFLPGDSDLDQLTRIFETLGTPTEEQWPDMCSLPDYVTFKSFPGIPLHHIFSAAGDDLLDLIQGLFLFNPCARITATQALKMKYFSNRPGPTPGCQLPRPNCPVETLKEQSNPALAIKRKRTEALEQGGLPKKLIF
T7 sequence (P51946 whole entry partner): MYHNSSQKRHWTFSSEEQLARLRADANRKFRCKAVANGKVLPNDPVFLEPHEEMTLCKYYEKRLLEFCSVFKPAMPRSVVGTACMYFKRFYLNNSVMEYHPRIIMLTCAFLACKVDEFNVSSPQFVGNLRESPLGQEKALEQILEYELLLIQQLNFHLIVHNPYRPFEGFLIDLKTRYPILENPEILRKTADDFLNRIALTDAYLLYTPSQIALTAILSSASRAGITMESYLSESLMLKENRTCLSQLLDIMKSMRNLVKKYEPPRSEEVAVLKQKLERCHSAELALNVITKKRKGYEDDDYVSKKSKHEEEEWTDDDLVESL
T7 sequence (P51948 whole entry partner): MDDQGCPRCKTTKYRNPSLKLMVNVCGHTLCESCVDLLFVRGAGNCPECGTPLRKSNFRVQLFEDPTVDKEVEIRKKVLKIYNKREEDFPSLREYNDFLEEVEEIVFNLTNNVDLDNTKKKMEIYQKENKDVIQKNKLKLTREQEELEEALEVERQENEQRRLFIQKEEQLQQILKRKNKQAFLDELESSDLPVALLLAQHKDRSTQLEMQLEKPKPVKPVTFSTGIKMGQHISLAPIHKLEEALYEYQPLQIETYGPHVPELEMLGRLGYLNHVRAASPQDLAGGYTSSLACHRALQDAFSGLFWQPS
T2 sequence (P49336 whole entry): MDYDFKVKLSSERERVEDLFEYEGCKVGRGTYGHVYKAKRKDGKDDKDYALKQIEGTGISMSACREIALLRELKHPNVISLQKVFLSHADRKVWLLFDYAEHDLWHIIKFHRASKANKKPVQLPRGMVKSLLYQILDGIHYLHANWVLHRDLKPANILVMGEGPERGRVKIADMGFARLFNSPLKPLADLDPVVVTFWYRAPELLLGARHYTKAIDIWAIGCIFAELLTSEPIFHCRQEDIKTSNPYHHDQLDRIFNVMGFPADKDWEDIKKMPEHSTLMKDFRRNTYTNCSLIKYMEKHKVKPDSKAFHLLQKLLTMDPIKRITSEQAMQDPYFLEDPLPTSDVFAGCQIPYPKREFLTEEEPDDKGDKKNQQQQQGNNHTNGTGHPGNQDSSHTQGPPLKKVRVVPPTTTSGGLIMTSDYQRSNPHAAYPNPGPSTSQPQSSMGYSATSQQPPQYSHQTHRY
T2 sequence (P24863 whole entry partner): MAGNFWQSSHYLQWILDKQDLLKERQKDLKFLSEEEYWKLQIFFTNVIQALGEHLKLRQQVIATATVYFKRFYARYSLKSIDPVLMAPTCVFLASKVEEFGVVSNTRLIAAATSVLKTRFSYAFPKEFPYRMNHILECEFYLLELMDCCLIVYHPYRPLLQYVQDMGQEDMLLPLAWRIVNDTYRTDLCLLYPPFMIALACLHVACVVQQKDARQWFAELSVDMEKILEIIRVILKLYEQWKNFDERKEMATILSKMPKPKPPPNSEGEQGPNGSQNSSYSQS
T3 sequence (P50750 whole entry): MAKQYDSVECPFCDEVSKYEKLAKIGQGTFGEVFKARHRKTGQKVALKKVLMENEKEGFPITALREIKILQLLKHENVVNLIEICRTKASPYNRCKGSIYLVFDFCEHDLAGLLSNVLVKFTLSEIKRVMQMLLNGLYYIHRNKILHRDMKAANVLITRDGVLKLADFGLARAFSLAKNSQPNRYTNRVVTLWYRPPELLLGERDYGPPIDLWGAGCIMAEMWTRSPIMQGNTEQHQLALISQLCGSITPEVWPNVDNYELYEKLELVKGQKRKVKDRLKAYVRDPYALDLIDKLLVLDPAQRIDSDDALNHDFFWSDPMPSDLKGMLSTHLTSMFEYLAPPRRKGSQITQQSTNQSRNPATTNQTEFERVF
T3 sequence (O60563 whole entry partner): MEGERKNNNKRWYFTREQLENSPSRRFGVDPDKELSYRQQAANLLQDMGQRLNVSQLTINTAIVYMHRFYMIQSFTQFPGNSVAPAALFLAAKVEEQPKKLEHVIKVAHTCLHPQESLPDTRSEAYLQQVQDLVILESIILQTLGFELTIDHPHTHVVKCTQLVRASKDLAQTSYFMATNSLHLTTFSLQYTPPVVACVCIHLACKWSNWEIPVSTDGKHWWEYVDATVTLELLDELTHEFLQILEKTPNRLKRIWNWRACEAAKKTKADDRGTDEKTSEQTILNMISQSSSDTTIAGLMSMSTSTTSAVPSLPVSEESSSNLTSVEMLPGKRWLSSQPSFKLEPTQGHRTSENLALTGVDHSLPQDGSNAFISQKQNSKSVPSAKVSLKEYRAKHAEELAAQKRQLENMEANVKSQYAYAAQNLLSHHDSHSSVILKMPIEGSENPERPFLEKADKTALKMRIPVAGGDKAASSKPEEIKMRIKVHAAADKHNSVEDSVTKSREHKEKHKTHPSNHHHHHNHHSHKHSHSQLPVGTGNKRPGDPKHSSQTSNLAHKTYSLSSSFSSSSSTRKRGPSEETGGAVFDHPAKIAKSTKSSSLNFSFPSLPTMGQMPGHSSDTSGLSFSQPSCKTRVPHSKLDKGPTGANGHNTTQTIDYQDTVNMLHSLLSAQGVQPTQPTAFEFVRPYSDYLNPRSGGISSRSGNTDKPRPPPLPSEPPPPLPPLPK
T1 sequence (Q9NYV4 whole entry): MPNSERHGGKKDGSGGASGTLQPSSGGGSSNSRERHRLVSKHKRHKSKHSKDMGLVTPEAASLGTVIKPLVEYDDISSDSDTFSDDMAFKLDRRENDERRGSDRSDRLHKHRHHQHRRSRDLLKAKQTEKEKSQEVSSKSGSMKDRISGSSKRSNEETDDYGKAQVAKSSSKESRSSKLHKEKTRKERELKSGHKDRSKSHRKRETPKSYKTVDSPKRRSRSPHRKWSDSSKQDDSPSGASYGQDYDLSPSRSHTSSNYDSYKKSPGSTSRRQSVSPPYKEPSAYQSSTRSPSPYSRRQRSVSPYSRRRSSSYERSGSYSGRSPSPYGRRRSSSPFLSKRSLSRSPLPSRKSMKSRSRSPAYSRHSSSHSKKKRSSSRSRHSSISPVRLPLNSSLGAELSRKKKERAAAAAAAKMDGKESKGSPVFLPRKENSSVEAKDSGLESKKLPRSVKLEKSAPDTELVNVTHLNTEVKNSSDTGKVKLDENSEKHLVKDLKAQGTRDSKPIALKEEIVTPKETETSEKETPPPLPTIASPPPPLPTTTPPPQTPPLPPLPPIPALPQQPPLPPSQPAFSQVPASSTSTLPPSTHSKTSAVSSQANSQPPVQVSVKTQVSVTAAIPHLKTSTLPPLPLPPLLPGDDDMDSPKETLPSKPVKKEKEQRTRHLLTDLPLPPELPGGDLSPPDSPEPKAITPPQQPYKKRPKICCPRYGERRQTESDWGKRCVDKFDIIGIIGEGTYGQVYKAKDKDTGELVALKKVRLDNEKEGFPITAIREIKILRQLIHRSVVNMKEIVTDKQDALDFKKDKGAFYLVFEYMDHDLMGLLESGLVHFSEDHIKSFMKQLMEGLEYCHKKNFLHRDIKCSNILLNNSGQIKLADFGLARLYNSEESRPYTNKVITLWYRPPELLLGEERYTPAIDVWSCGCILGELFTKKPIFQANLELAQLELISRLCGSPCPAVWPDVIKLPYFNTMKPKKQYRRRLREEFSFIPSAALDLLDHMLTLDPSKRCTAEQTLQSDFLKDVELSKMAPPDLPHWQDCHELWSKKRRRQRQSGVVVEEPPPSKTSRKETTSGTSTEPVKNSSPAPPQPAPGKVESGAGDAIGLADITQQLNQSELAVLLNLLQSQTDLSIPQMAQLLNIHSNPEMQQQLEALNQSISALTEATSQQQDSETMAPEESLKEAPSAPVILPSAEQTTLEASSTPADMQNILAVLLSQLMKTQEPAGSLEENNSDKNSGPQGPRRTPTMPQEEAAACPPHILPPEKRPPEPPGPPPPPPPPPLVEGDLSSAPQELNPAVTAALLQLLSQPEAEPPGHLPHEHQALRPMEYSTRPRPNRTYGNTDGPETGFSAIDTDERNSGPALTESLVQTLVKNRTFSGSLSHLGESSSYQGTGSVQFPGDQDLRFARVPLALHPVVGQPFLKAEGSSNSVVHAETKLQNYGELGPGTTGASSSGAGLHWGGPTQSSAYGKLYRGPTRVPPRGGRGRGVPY
T1 sequence (O75909 whole entry partner): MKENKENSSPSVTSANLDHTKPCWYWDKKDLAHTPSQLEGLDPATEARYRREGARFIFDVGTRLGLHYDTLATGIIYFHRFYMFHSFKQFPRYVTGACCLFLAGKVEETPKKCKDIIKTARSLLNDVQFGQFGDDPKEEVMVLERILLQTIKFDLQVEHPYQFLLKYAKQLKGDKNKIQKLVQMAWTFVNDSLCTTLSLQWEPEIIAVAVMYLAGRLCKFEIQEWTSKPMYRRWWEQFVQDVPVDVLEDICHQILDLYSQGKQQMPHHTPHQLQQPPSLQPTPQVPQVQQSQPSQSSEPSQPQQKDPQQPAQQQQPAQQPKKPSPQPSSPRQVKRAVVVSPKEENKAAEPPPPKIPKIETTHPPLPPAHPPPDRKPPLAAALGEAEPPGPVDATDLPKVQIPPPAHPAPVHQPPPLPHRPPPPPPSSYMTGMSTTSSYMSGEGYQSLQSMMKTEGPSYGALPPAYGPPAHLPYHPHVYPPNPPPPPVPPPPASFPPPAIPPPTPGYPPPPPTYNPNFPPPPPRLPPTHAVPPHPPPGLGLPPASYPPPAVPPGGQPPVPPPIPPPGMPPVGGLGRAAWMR

C=C(F)C(=O)Nc1ccc2c(-c3ccccc3CNc3nc(NC[C@H]4CCNC[C@@H]4O)nc4c(C(C)C)cnn34)nccc2c1 [Q901]
IC50 (MCF-7 cells; 72 hours): 95 nM | IC50 (MCF-7 cells; 96 hours): 16 nM | IC50 (MCF-7 cells; 120 hours): 5 nM | fold difference in inhibition of CDK12 compared to CDK7 (CDK12): 207 fold | fold difference in inhibition of CDK8 compared to CDK7 (CDK8): > 1000 fold | IC50 (CDK8; ATP at apparent ATP-Km): > 10000 nM | fold difference in inhibition of CDK9 compared to CDK7 (CDK9): 715 fold | fold difference in inhibition of CDK13 compared to CDK7 (CDK13): 641 fold | IC50 (H292 cells; Homo sapiens, NCI-H292, Single treatment / monotherapy): 12 nM | IC50 (HCT116 cells): 8.4 nM | IC50 values for other CDKs higher than that for CDK7 (other CDKs): ≥ 242 fold | tumor growth inhibition (TGI) (HCT116 xenograft): 81% | IC50 [1]: 10.4 nM | reduction of intensity of Cys312-containing peptides (residues 310 to 329 and 310 to 318) [2]: ~99% | inhibition at 1 µM (CDK7; 1 μM, 1 hour): 99% | remaining activity at 1 µM (CDK7; 1 μM, 1 hour, read-out: residual activity value CDK7): 1% | IC50 (CDK7; in vitro): 10 nM | tumor growth inhibition (TGI) (H292 xenograft; [3]): 80% | tumor growth inhibition (TGI) (H292 xenograft; [4]): 61%

sacituzumab govitecan [SG]
H292 IC50 (H292 cells; monotherapy): 0.5 µg/mL | time at which tumors showed regrowth (H292 xenograft; H292 xenograft, SG alone): > 14 days | tumor growth inhibition (TGI) (H292 xenograft; [3]): 47% | tumor growth inhibition (TGI) (H292 xenograft; [4]): 72%
